# Test system: A/PR/8/34 with NA-H274Y
# Format: cell-based, Influenza A virus (H1N1)
structure (smiles),measurement,value
COC(=O)C1=C(C)NC(C)=C(C(=O)OCC(C)C)C1c1ccccc1[N+](=O)[O-] (stereo not shown) [Nisoldipine],IC50,5.94 ± 0.55 µM

# Source: publication PMC9785492 (Viruses, 2022)
